{"source": "patent US9328374B2", "about": "“Selective culture medium and method for detecting carbapenem-resistant bacteria in a test sample” (Institut National de la Sante et de la Recherche Medicale …, priority 2011, dated 2016)", "test_in_all_cases": "MIC of imipenem, ertapenem and meropenem", "key": {"E. aerogenes": {"test_system": "E. aerogenes", "assay_type": "cell-based, Enterobacter aerogenes", "settings": "Klebsiella aerogenes, read-out: MIC"}, "S. typhimurium": {"test_system": "S. typhimurium", "assay_type": "cell-based"}, "C. freundii": {"test_system": "C. freundii", "assay_type": "cell-based, Citrobacter freundii"}, "E. coli": {"test_system": "E. coli", "assay_type": "cell-based, Escherichia coli", "settings": "Escherichia coli"}}, "note": "Where two headings read alike, the source gives them in different places."}
{"smiles": "C[C@@H](O)[C@H]1C(=O)N2C(C(=O)O)=C(S[C@@H]3CN[C@H](C(=O)Nc4cccc(C(=O)O)c4)C3)[C@H](C)[C@H]12", "note": "[ETP, ertapenem]", "values": [{"measurement": "MIC", "setting": "E. aerogenes; E. aerogenes 1009, TEM-24, non-carbapenemase producer", "result": 0.12, "unit": "mg/L"}, {"measurement": "MIC", "setting": "E. aerogenes; E. aerogenes 1085 (TEM-24)", "result": 0.19, "unit": "mg/L"}, {"measurement": "MIC", "setting": "E. aerogenes; E. aerogenes 1085, TEM-24, non-carbapenemase producer", "result": 0.19, "unit": "mg/L"}, {"measurement": "MIC", "setting": "E. aerogenes; strain E. aerogenes 1085, TEM-24, non-carbapenemase producer", "result": 0.19, "unit": "mg/L"}, {"measurement": "MIC", "setting": "S. typhimurium; S. typhimurium 1081 (CTX-M-1)", "result": 0.19, "unit": "mg/L"}, {"measurement": "MIC", "setting": "S. typhimurium; Salmonella enterica, S. typhimurium 1081, CTX-M-1, non-carbapenemase producer, read-out: MIC", "result": 0.19, "unit": "mg/L"}, {"measurement": "MIC", "setting": "S. typhimurium; strain S. typhimurium 1081, CTX-M-1, non-carbapenemase producer", "result": 0.19, "unit": "mg/L"}, {"measurement": "MIC", "setting": "C. freundii; C. freundii MAU, Overexpressed AmpC + TEM-3, non-carbapenemase producer", "result": 8, "unit": "mg/L"}, {"measurement": "MIC", "setting": "C. freundii; Citrobacter freundii, C. freundii 1003, CTX-M-15 + TEM-1, non-carbapenemase producer, read-out: MIC", "result": 0.016, "unit": "mg/L"}, {"measurement": "MIC", "setting": "C. freundii; Citrobacter freundii, C. freundii 7767 (wild type), read-out: MIC", "result": 0.008, "unit": "mg/L"}, {"measurement": "MIC", "setting": "C. freundii; Citrobacter freundii, C. freundii 7767, (wild type), non-carbapenemase producer, read-out: MIC", "result": 0.008, "unit": "mg/L"}, {"measurement": "MIC", "setting": "C. freundii; Citrobacter freundii, C. freundii 10107 (TEM-1 + SHV-12), read-out: MIC", "result": 0.016, "unit": "mg/L"}, {"measurement": "MIC", "setting": "C. freundii; Citrobacter freundii, C. freundii 10107, TEM-1 + SHV-12, non-carbapenemase producer, read-out: MIC", "result": 0.016, "unit": "mg/L"}, {"measurement": "MIC", "setting": "C. freundii; Citrobacter freundii, C. freundii 10135 (CTX-M-15), read-out: MIC", "result": 0.016, "unit": "mg/L"}, {"measurement": "MIC", "setting": "C. freundii; Citrobacter freundii, C. freundii 10135, CTX-M-15, non-carbapenemase producer, read-out: MIC", "result": 0.016, "unit": "mg/L"}, {"measurement": "MIC", "setting": "C. freundii; Citrobacter freundii, C. freundii STE (NDM-1 + OXA-1 + OXA-9 + OXA-10 + CTX-M-15 + TEM-1), read-out: MIC", "result": "> 32", "unit": "mg/L"}, {"measurement": "MIC", "setting": "C. freundii; Citrobacter freundii, C. freundii STE, NDM-1 + TEM-1 + CTX-M-15 + VIM-4 + OXA-1 + OXA-9 + OXA-10 + OXA-181, read-out: MIC", "result": "> 32", "unit": "mg/L"}, {"measurement": "MIC", "setting": "C. freundii; Citrobacter freundii, strain C. freundii 10107, TEM-1 + SHV-12, non-carbapenemase producer, read-out: MIC", "result": 0.016, "unit": "mg/L"}, {"measurement": "MIC", "setting": "C. freundii; Citrobacter freundii, strain C. freundii 10135, CTX-M-15, non-carbapenemase producer, read-out: MIC", "result": 0.016, "unit": "mg/L"}, {"measurement": "MIC", "setting": "C. freundii; strain C. freundii MAU, Overexpressed AmpC + TEM-3, non-carbapenemase producer", "result": 8, "unit": "mg/L"}, {"measurement": "MIC", "setting": "E. coli; E. coli 1020, CTX-M-1 + TEM-1, non-carbapenemase producer", "result": 0.023, "unit": "mg/L"}, {"measurement": "MIC", "setting": "E. coli; E. coli 1023, CTX-M-2 + TEM-1, non-carbapenemase producer, read-out: MIC", "result": 0.016, "unit": "mg/L"}, {"measurement": "MIC", "setting": "E. coli; E. coli 1034, TEM-1 + SHV-38, non-carbapenemase producer, read-out: MIC", "result": 0.006, "unit": "mg/L"}, {"measurement": "MIC", "setting": "E. coli; E. coli 1048, TEM-1 + SHV-2a, non-carbapenemase producer, read-out: MIC", "result": 0.012, "unit": "mg/L"}, {"measurement": "MIC", "setting": "E. coli; E. coli 1082 (TEM-1)", "result": 0.019, "unit": "mg/L"}, {"measurement": "MIC", "setting": "E. coli; E. coli 1082, TEM-1, non-carbapenemase producer", "result": 0.019, "unit": "mg/L"}, {"measurement": "MIC", "setting": "E. coli; E. coli 1092, OXA-1, non-carbapenemase producer, read-out: MIC", "result": 0.19, "unit": "mg/L"}, {"measurement": "MIC", "setting": "E. coli; E. coli 6252, (wild type), non-carbapenemase producer", "result": 0.004, "unit": "mg/L"}, {"measurement": "MIC", "setting": "E. coli; E. coli 10121, CTX-M-2, non-carbapenemase producer, read-out: MIC", "result": 0.016, "unit": "mg/L"}, {"measurement": "MIC", "setting": "E. coli; E. coli 1108013, IMP-1 + TEM-1, read-out: MIC", "result": 4, "unit": "mg/L"}, {"measurement": "MIC", "setting": "E. coli; E. coli AUS (NDM-1 + CTX-M-15 + TEM-1), read-out: MIC", "result": 32, "unit": "mg/L"}, {"measurement": "MIC", "setting": "E. coli; E. coli AUS, NDM-1 + TEM-1 + CTX-M-15, read-out: MIC", "result": 32, "unit": "mg/L"}, {"measurement": "MIC", "setting": "E. coli; E. coli BER (OXA-48 + CTX-M-15), read-out: MIC", "result": 1.5, "unit": "mg/L"}, {"measurement": "MIC", "setting": "E. coli; E. coli BER, OXA-48 + TEM-1 + CTX-M-15, read-out: MIC", "result": 1.5, "unit": "mg/L"}, {"measurement": "MIC", "setting": "E. coli; E. coli BOK (OXA-48 + CTX-M-15), read-out: MIC", "result": 0.38, "unit": "mg/L"}, {"measurement": "MIC", "setting": "E. coli; E. coli BOK, OXA-48 + CTX-M-15, read-out: MIC", "result": 0.38, "unit": "mg/L"}, {"measurement": "MIC", "setting": "E. coli; E. coli BON (OXA-48 + CTX-M-24 + TEM-1), read-out: MIC", "result": 0.5, "unit": "mg/L"}, {"measurement": "MIC", "setting": "E. coli; E. coli BON, OXA-48 + TEM-1 + CTX-M-24, read-out: MIC", "result": 0.5, "unit": "mg/L"}, {"measurement": "MIC", "setting": "E. coli; E. coli BOU (OXA-48 + CTX-M-15), read-out: MIC", "result": 0.75, "unit": "mg/L"}, {"measurement": "MIC", "setting": "E. coli; E. coli BOU, OXA-48 + CTX-M-15, read-out: MIC", "result": 0.75, "unit": "mg/L"}, {"measurement": "MIC", "setting": "E. coli; E. coli COL (KPC-2), read-out: MIC", "result": 4, "unit": "mg/L"}, {"measurement": "MIC", "setting": "E. coli; E. coli COL, KPC-2 + TEM-1 + CTX-M-9, read-out: MIC", "result": 4, "unit": "mg/L"}, {"measurement": "MIC", "setting": "E. coli; E. coli DIH (VIM-19), read-out: MIC", "result": 16, "unit": "mg/L"}, {"measurement": "MIC", "setting": "E. coli; E. coli DIH, VIM-19, read-out: MIC", "result": 16, "unit": "mg/L"}, {"measurement": "MIC", "setting": "E. coli; E. coli DIN, KPC-2 + TEM-1 + OXA-1, read-out: MIC", "result": "> 32", "unit": "mg/L"}, {"measurement": "MIC", "setting": "E. coli; E. coli E14 (CTX-M-14), read-out: MIC", "result": 0.12, "unit": "mg/L"}, {"measurement": "MIC", "setting": "E. coli; E. coli E14, CTX-M-14, non-carbapenemase producer, read-out: MIC", "result": 0.012, "unit": "mg/L"}, {"measurement": "MIC", "setting": "E. coli; E. coli ECA, ACC-1, non-carbapenemase producer, read-out: MIC", "result": 0.012, "unit": "mg/L"}, {"measurement": "MIC", "setting": "E. coli; E. coli EVB, VEB-1, non-carbapenemase producer, read-out: MIC", "result": 0.012, "unit": "mg/L"}, {"measurement": "MIC", "setting": "E. coli; E. coli FOR, CTX-M-15, non-carbapenemase producer, read-out: MIC", "result": 0.012, "unit": "mg/L"}, {"measurement": "MIC", "setting": "E. coli; E. coli GEN (NDM-1 + OXA-1 + CMY-30 + TEM-1), read-out: MIC", "result": "> 32", "unit": "mg/L"}, {"measurement": "MIC", "setting": "E. coli; E. coli GEN, NDM-1 + TEM-1 + CMY-30 + OXA-1, read-out: MIC", "result": "> 32", "unit": "mg/L"}, {"measurement": "MIC", "setting": "E. coli; E. coli GOG (OXA-48 + CTX-M-24), read-out: MIC", "result": 1.5, "unit": "mg/L"}, {"measurement": "MIC", "setting": "E. coli; E. coli MET, Chromosome-encoded extended-spectrum cephalosporinase, non-carbapenemase producer, read-out: MIC", "result": 0.012, "unit": "mg/L"}, {"measurement": "MIC", "setting": "E. coli; E. coli NAA (OXA-48 + CTX-M-24), read-out: MIC", "result": 2, "unit": "mg/L"}, {"measurement": "MIC", "setting": "E. coli; E. coli OM3, OXA-48 + TEM-1 + CTX-M-15, read-out: MIC", "result": 1, "unit": "mg/L"}, {"measurement": "MIC", "setting": "E. coli; E. coli OM20, NDM-1 + TEM-1 + CTX-M-15, read-out: MIC", "result": "> 32", "unit": "mg/L"}, {"measurement": "MIC", "setting": "E. coli; E. coli OM22, OXA-48 + TEM-1 + CTX-M-15, read-out: MIC", "result": 1, "unit": "mg/L"}, {"measurement": "MIC", "setting": "E. coli; E. coli PSP (KPC-2), read-out: MIC", "result": 0.5, "unit": "mg/L"}, {"measurement": "MIC", "setting": "E. coli; E. coli PSP, KPC-2 + TEM-1 + OXA-1, read-out: MIC", "result": 0.5, "unit": "mg/L"}, {"measurement": "MIC", "setting": "E. coli; E. coli RIC (NDM-1 + OXA-1 + OXA-10 + CMY-16), read-out: MIC", "result": 3, "unit": "mg/L"}]}
